We go through one compound from EP3325012B1, “CINEOLE-CONTAINING COMPOSITION FOR TREATING NOSE POLYPS” (Maria Clementine Martin Klosterfrau Vertriebsgesellschaft …, priority 2015, dated 2017).

The subject of assay [1] is permanente Zelllinien maligner Kopf-Hals-Tumoren. As to the kind of experiment: Cell migration test (xCELLigence). Particulars: 2 mM. The class given is cell-based. An excerpt:
Um den Einfluss von Cineol auf die zelluläre Migrations-Aktivität zu untersuchen, wurden Migrations-CIM-Platten 16 (Roche, Mannheim, Deutschland), bei welchen es sich um ein durch eine poröse Membran getrenntes 2-Kammer-System handelt, entsprechend der Bedienungsanleitung des Herstellers verwendet (Roche Diagnostics). Die Zellen wandern dabei von der oberen Kammer durch die Membran und haften an den elektronischen Sensoren an der Unterseite der Membran, so dass ein Anstieg der Impedanz resultiert. Die Veränderungen werden automatisch und kontinuierlich durch das RTCA-DP-Instrument aufgezeichnet, und die Zellmigrations-Aktivität kann durch das Zell-Index-Profil überwacht werden. Vor dem Befüllen der Wells mit Zellen (60.000 Zellen/Well) wurde die Unterseite der Wells der oberen Kammer der CIM-Platte 16 mit 30 µl Collagen I ([…], Sigma, Deisenhofen, Deutschland) beschichtet. Jede Behandlungsbedingung wurde in dreifacher Ausführung gemessen.
Neben der zellulären Vitalität und Progression sowie dem Einfluss auf Apoptose und Zellzyklus hat die Anmelderin auch den Einfluss von Cineol auf das zelluläre Migrationsverhalten untersucht. […]

The subject of assay [2] is proinflamatorischer Zytokine. Conditions: inhalation; cited from earlier work.
Another assay relates to aktivem beta-Catenin. The assay can be described thus: Western blot of active beta-catenin in nasal polyp tissue samples. The class given is cell-based, Mensch. Conditions: 100 µM, 24 Stunden incubation, versus medium controls (Figur 3). From the text: Proben von Nasenpolypen wurden in PBS gewaschen und vorsichtig homogenisiert. Es wurden Zellextrakte hergestellt und unter Verwendung von Lysepuffer 16 ("Human pluripotent stem cell array" (R&D Systems)) solubilisiert. Die Proteinkonzentrationen wurden bestimmt.
Lysate von Geweben wurden durch Erhitzen über einen Zeitraum von 5 Minuten in einfachem SDS-Probenpuffer (Carl Roth GmbH, Karlsruhe, Deutschland) denaturiert. Die Proteinkonzentrationen wurden mittels des Bradford-Tests bestimmt und jeweils 30 µg Gesamtprotein wurden zur SDS-Polyacrylamid-Gel Elektrophorese eingesetzt (Mini-Protean TGX®, Any kD, BioRad, Hercules, CA, USA) und anschließend auf Nitrozellulosemembranen übertragen. Die Übertragung der Proteine wurde mittels Ponceau-Färbung kontrolliert. […]
Um die Beladungsmenge jeder Spur zu bestimmen, wurden die Nitrozellulosemembranen über Nacht bei 4 °C mit einem primären Antikörper der GAPDH (Cell Signaling Technology Inc., Massachusetts, Katalognummer: 14C10) in einer Verdünnung von 1 : 1.000 inkubiert. […] Die Pixeldichten wurden quantifiziert und mittels Fusion FX7® unter Einsatz von Bio-1D Software® dokumentiert. […]

In the next assay the test system is Akt. As to the kind of experiment: Western blot of Akt and P-Akt in nasal polyp protein extracts. The class given is cell-based, Mensch. Particulars: 100 µM; all analysed protein extracts of nasal polyps (Figur 5). The protocol:
Lysate von Geweben wurden durch Erhitzen über einen Zeitraum von 5 Minuten in einfachem SDS-Probenpuffer (Carl Roth GmbH, Karlsruhe, Deutschland) denaturiert. Die Proteinkonzentrationen wurden mittels des Bradford-Tests bestimmt und jeweils 30 µg Gesamtprotein wurden zur SDS-Polyacrylamid-Gel Elektrophorese eingesetzt (Mini-Protean TGX®, Any kD, BioRad, Hercules, CA, USA) und anschließend auf Nitrozellulosemembranen übertragen. Die Übertragung der Proteine wurde mittels Ponceau-Färbung kontrolliert.
Neben der Phosphorylierung an Serin-9/-21 wird die GSK-3-Aktivität auch auf dem Level seiner subzellulären Lokalisierung reguliert. GSK-3 kann zur Trennung von seinen Substraten in endolysosomale Vesikel verlagert werden, um die Kinase-Aktivität zu verringern. […] GSK-3 ist in die Regulation von zahlreichen biosynthetischen Signalwegen involviert und zahlreiche Kinasen sind in der Lage, die GSK-3-Aktivität durch Phosphorylierung an dessen aktivierenden oder hemmenden Phosphorylierungsstellen zu regulieren. Die Akt-Kinase (auch bekannt als PKB) wurde als Onkogen mit Serin/Threonin-Kinase-Aktivität identifiziert und es wurde gezeigt, dass diese in vivo einen negativen Regulator der GSK3-beta Aktivität darstellt. Akt kann durch Phosphorylierung an Serin-473 durch PDK1 aktiviert werden, wobei davon ausgegangen wird, dass PHLPP als Inhibitor von dessen Phosphorylierung fungiert. […]

For the compound `CC12CCC(CC1)C(C)(C)O2` [1,8-Cineol, 1,3,3-Trimethyl-2-oxabicyclo[2.2.2]octan], the “zelluläre Migrationsaktivität” value in assay [1] was “leichten Einfluss”. In assay [2], the “proinflamatorische Zytokine” value was “deutlichen Reduktion”. For the same compound, the “Expressionslevel von aktivem beta-Catenin” value in the assay with aktivem beta-Catenin is given as “verschwanden aktive beta-Catenin-Proteine fast vollständig”. Besides, the “Phosphorylierungslevel von Akt an Serin-473” value with Akt is given as “nicht wesentlich beeinflusst”.
